Earlier results in publication PMC8760190 (Molecular Imaging and Biology, 2021).

Details: 90 min after injection, rats and mice

Row | SMILES | Non-metabolized parent compound as share of remaining radioactivity in the brain
1 | CCN(CC)C(=O)Cc1c(-c2ccc(OCC[18F])cc2)nn2c(C)cc(C)nc12 [[^18F]DPA-714] | about 50%
2 | CCN(CC)C(=O)Cc1c(-c2ccc([18F])cc2)nn2c(C)cc(C)nc12 [[^18F]F-DPA] | more than 90%
